# Reference: patent US8946247B2, “Quinazoline carboxamide azetidines” (Merck Patent GmbH, priority 2010, dated 2015)
# What was measured:
# pS6 MDA-MB-468 = assay: Cellular Activity Assay (phospho-S6 in MDA-MB-468 cells); format: cell-based; conditions: Homo sapiens, 2 hr compound incubation, percent pS6-positive cells
# Description: MDA-MB-468 cells were grown in DMEM containing glutamine supplemented with 10% Fetal Bovine Serum (FBS) and 1× antibiotics. Cells were maintained by splitting 1:3 twice a week.
# For the assay, cells were plated the evening before at a density of 4000 cells per well in black polyD lysine coated 384 well plates. Cells were incubated overnight (16 to 20 hours) in growth media. Compounds at an appropriate concentration were added to the wells and incubated for 2 hr. Controls included: i) no primary, ii) rabbit isotype, iii) propidium iodide (red) only and iv) anti-phospho-S6 antibody alone (green only). Cells were then fixed in 4% paraformaldehyde for 15-20 minutes at room temperature, then washed 3×80 ul with PBS.
# 50 ul 10% normal goat serum (NGS) with 0.2% triton X 100 in PBS were added and incubated for 30 to 60 minutes at room temperature. Anti-phospho-S6 antibody was diluted 1:800 2% with NGS in 0.2% TritonX-100 and 30 ul added to appropriate wells. The wells were incubated overnight at 4 degrees Celsius.
# Then the wells were washed with 3×80 uL PBS. The secondary green fluorescence labeled antibody (Alexa Fluor® 488 F(ab′)2 fragment goat Anti-rabbit IgG (H+L)), was diluted 1:1500 in 2% NGS with 0.2% TritonX-100, and 30 ul were added to the appropriate wells which were then incubated in the dark at room temperature for 60 minutes. Then they were washed with 4×80 ul PBS. Propidium iodide (1.5 mM stock) was diluted 1:1000 in PBS, and 50 ul were added to the appropriate wells and incubated for 30 minutes at room temperature in the dark. Propidium iodide was not washed out. Plates were read on the Acumen Explorer.
# Red and green cell populations were determined using controls. The number of green cells (pS6) and total number of cells (red) were then counted and the percentage of green cells was calculated. Percent positive cell data was plotted on a log scale against concentration of compounds and IC50 values were calculated from dose response curves.
# Akt1 = biological target: T1, Akt1 (Homo sapiens, UniProt P31749); assay: AKT/PKB Kinase Assay; format: biochemical; conditions: His-AKT (Full Length), 160 uM ATP, 90 min at 25 C
# T1 construct: 0.1 ng/ul His-AKT (Full Length), (Invitrogen, Part #P2999, Lot #641228C); His; purchased Invitrogen P2999
# Description: In order to measure AKT inhibition in the Caliper Life Sciences LC3000, a TTP Mosquito liquid handling instrument was used to place 125 nl of the appropriate concentration of inhibitor in 100% DMSO (for a dose response curve calculation) into each well of a 384-well plate. To this reaction components were added to a final volume of 12.5 ul: • 0.1 ng/ul His-AKT (Full Length), (Invitrogen, Part #P2999, Lot #641228C) • 160 uM ATP (Fluke, 02055) • 1 mM DTT (Sigma, D0632) • 1 mM MgCl2 (Sigma, M1028) • 1 uM substrate peptide (sequence FITC-AHA-GRPRTSSFAEG-NH2), synthesized by Tufts Peptide Synthesis service. • 100 mM HEPES pH 7.5 (Calbiochem, 391338) • 0.015% Brij-35 (Sigma, B4184)
# (§1) The reaction was incubated for 90 min at 25 C, and then stopped by the addition of 70 ul of Stop buffer (100 mM HEPES pH 7.5, 0.015% Brij-35, 10 mM EDTA (Sigma, E7889)).
# The plate was read on a Caliper LC 3000 in an Off-Chip mobility shift assay format, using the following parameters for a 12-sipper chip: screening pressure −2.3 psi, upstream voltage −500, and downstream voltage −3000.
# These conditions cause unphosphorylated substrate and phosphorylated product peptide to resolve as separate peaks allowing direct measurement of percentage of conversion of substrate to product. The percent conversion was plotted against concentration of inhibitor to produce a sigmoidal dose response curve, from which an IC50 was calculated.
# P70S6K (T412E mutant) = biological target: T2, P70S6K (T412E mutant) (Homo sapiens, UniProt P23443, T412E); assay: p70S6K Enzyme Assay; format: biochemical; conditions: 24 μM ATP, 90 min at 25° C., Caliper mobility shift
# T2 construct: purchased Millipore
# Description: p70S6K inhibitor compounds were diluted and plated in 96 well plates. A reaction mixture including the following components were then added to the compound plate to initiate the enzyme reaction; P70S6K (3 nM, T412E mutant, Millipore) was mixed with 24 μM ATP in an assay buffer containing 100 mM Hepes (pH 7.5), 5 mM MgCl2, 1 mM DTT, 0.015% Brij and 1 μM of the substrate peptide FITC-AHA-AKRRRLSSLRA-OH (derived from the S6 ribosomal protein sequence, FITC=fluorescein isothiocyanate, AHA=6-aminohexanoic acid). The reaction was incubated for 90 min at 25° C., before the addition of 10 mM EDTA to stop the reaction. The proportion of substrate and product (phosphorylated) peptide was analysed on a Caliper Life Sciences Lab Chip 3000, using a pressure of −1.4 psi, and upstream and downstream voltages of −3000 and −700 respectively. Product peaks were resolved before substrate peaks on the resulting chromatograms.
# To assess the inhibitory potential of the compounds, IC50-values were determined, as shown in Chemical Synthesis section above.
# Aurora B = biological target: T3, Aurora B (Homo sapiens, UniProt Q96GD4); assay: Aurora B Kinase Assay; format: biochemical; conditions: GST-Aurora B (1-344), 10 uM ATP, 90 min at 25 C
# T3 construct: GST-Aurora B (1-344 amino acids); GST (N); purchased Carna Biosciences 05-102
# Description: To measure inhibitor activity of Aurora B inhibitors in the Caliper Life Sciences LC3000, a TTP Mosquito liquid handling instrument was used to place 0.25 ul of the appropriate concentration of inhibitor in 100% DMSO (for a dose response curve calculation) into each well of a 384-well plate. To this reaction components was added to a final volume of 25 ul: • 0.1 ng/ul GST-Aurora B (1-344 amino acids), (Carna Biosciences 05-102. N-terminal GST fusion with His tagged INCEP, accession number Q96GD4). • 10 uM ATP (Fluka, 02055) • 1 mM DTT (Sigma, D0632) • 1 mM MgCl2 (Sigma, M1028) • 1 uM substrate peptide (sequence FITC-LRRASLG-(CONH2), synthesized by Tufts Peptide Synthesis service. • 100 mM HEPES pH 7.5 (Calbiochem, 391338) • 0.015% Brij-35 (Sigma, B4184)
# as §1
# The plate was read on a Caliper LC 3000 in an Off-Chip mobility shift assay format, using the following parameters for a 12-sipper chip: screening pressure −1.8 psi, upstream voltage −2700, downstream voltage −1000. These conditions caused unphosphorylated substrate and phosphorylated product peptide to resolve as separate peaks allowing direct measurement of percentage of conversion of substrate to product. The percent conversion was plotted against concentration of inhibitor to produce a sigmoidal dose response curve, from which an IC50 was calculated using XLFit for Microsoft Excel.
# T1 sequence (P31749 whole entry): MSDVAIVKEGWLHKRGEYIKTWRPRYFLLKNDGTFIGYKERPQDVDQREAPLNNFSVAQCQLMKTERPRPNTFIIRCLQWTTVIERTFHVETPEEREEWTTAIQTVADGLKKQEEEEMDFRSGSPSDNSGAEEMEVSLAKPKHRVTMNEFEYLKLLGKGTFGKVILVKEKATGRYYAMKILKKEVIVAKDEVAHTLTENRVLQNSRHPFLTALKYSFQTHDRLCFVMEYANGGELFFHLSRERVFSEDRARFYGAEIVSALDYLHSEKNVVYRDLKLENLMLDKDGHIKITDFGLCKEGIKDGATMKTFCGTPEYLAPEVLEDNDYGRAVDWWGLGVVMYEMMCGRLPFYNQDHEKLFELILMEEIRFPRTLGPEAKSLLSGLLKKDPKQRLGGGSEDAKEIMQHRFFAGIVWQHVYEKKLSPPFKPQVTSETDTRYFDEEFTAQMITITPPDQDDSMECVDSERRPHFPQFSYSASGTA
# T3 sequence (Q96GD4 whole entry, the tested form may be a part): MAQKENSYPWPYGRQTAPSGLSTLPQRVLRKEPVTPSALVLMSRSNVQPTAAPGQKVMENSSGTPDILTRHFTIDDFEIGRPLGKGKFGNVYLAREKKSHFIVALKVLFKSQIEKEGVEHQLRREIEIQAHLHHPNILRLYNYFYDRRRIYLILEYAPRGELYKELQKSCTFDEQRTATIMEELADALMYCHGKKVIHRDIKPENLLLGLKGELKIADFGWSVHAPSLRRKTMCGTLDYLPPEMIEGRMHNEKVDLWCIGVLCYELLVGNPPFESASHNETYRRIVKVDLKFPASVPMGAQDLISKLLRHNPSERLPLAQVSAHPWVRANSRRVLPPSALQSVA
# T3 sequence (Q9NQS7 803-918 partner limits assumed): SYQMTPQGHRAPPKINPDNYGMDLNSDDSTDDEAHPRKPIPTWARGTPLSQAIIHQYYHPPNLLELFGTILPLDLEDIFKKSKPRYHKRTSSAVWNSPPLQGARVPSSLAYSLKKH
# T2 sequence (P23443 1-421 T412E limits assumed): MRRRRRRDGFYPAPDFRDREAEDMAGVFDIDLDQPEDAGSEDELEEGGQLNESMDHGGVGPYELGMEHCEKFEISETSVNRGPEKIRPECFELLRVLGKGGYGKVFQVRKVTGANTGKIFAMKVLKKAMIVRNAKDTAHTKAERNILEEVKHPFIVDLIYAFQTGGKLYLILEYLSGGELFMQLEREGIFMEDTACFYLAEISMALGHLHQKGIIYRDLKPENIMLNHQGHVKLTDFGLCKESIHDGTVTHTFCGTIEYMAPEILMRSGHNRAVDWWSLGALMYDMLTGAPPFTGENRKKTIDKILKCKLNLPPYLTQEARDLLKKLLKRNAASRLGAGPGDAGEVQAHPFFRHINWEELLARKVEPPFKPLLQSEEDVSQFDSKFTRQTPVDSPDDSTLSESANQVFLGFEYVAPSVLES
SMILES,IC50 (pS6 MDA-MB-468),IC50 (Akt1),IC50 (P70S6K (T412E mutant)),IC50 (Aurora B)
"NC(=O)c1cccc2c(N[C@H](CN3CCC3)c3ccc(F)cc3)ncnc12 [Example 3, 4-[(S)-2-Azetidin-1-yl-1-(4-fluorophenyl)-ethylamino]-quinazoline-8-carboxylic acid amide]",0.103 µM,0.023 µM,0.0078 µM,0.041 µM
"NC(=O)c1cccc2c(N[C@H](CN3CCC3)c3ccc(OC(F)(F)F)cc3)ncnc12 [Example 30, 4-[(S)-2-Azetidin-1-yl-1-(4-trifluoromethoxy-phenyl)-ethylamino]-quinazoline-8-carboxylic acid amide]",0.199 µM,0.187 µM,0.0017 µM,0.37 µM
"NC(=O)c1cccc2c(N[C@H](CN3CCC3)c3cccc(C(F)(F)F)c3)ncnc12 [Example 27, 4-[(S)-2-Azetidin-1-yl-1-(3-trifluoromethyl-phenyl)-ethylamino]-quinazoline-8-carboxylic acid amide]",0.056 µM,0.0056 µM,0.0014 µM,0.18 µM
"NC(=O)c1cccc2c(N[C@H](CN3CCC3)c3ccc(F)c(F)c3)ncnc12 [Example 4, 4-[(S)-2-Azetidin-1-yl-1-(3,4-difluorophenyl)-ethylamino]-quinazoline-8-carboxylic acid amide]",0.074 µM,0.0041 µM,0.0012 µM,0.056 µM
"NC(=O)c1cccc2c(N[C@H](CN3CCC3)c3cc(F)cc(C(F)(F)F)c3)ncnc12 [Example 6, 4-[(S)-2-Azetidin-1-yl-1-(3-fluoro-5-trifluoromethylphenyl)-ethylamino]-quinazoline-8-carboxylic acid amide]",0.098 µM,0.0091 µM,0.0023 µM,0.27 µM
"CC1CN(C[C@@H](Nc2ncnc3c(C(N)=O)cccc23)c2ccc(F)c(C(F)(F)F)c2)C1 [Example 46, 4-[(S)-1-(4-Fluoro-3-trifluoromethyl-phenyl)-2-(3-methyl-azetidin-1-yl)-ethylamino]-quinazoline-8-carboxylic acid amide]",0.427 µM,0.0075 µM,0.0049 µM,0.39 µM
"N#Cc1cccc([C@@H](CN2CCC2)Nc2ncnc3c(C(N)=O)cccc23)c1 [Example 11, 4-[(S)-2-Azetidin-1-yl-1-(3-cyanophenyl)-ethylamino]-quinazoline-8-carboxylic acid amide]",0.382 µM,0.27 µM,0.0033 µM,0.69 µM
"NC(=O)c1cccc2c(N[C@H](CN3CCC3)c3cc(F)ccc3Cl)ncnc12 [Example 25, 4-[(S)-2-Azetidin-1-yl-1-(2-chloro-5-fluoro-phenyl)-ethylamino]-quinazoline-8-carboxylic acid amide]",0.486 µM,0.37 µM,0.0031 µM,0.259 µM
"NC(=O)c1cccc2c(N[C@H](CN3CCC3)c3ccc(Cl)cc3F)ncnc12 [Example 14, 4-[(S)-2-Azetidin-1-yl-1-(2-fluoro-4-chlorophenyl)-ethylamino]-quinazoline-8-carboxylic acid amide]",0.086 µM,0.025 µM,0.0011 µM,0.069 µM
"NC(=O)c1cccc2c(N[C@H](CN3CCC3)c3ccc(C(F)(F)F)c(Cl)c3)ncnc12 [Example 17, 4-[(S)-2-Azetidin-1-yl-1-(3-chloro-4-trifluoromethylphenyl)-ethylamino]-quinazoline-8-carboxylic acid amide]",0.008 µM,0.0037 µM,0.0023 µM,0.13 µM
"NC(=O)c1cccc2c(N[C@H](CN3CCC3)c3cc(F)c(F)cc3F)ncnc12 [Example 18, 4-[(S)-2-Azetidin-1-yl-1-(2,4,5-trifluorophenyl)-ethylamino]-quinazoline-8-carboxylic acid amide]",0.085 µM,0.036 µM,0.0038 µM,0.22 µM
"NC(=O)c1cccc2c(N[C@H](CN3CCC3)c3ccc(Cl)cc3)ncnc12 [Example 10, 4-[(S)-2-Azetidin-1-yl-1-(4-chlorophenyl)-ethylamino]-quinazoline-8-carboxylic acid amide]",0.036 µM,0.021 µM,0.001 µM,0.043 µM
"N#Cc1ccc([C@@H](CN2CCC2)Nc2ncnc3c(C(N)=O)cccc23)cc1 [Example 23, 4-[(S)-2-Azetidin-1-yl-1-(4-cyano-phenyl)-ethylamino]-quinazoline-8-carboxylic acid amide]",0.029 µM,0.011 µM,0.0013 µM,0.15 µM
"CC1CCN1C[C@@H](Nc1ncnc2c(C(N)=O)cccc12)c1ccc(F)c(C(F)(F)F)c1 (stereo partly drawn) [Example 48, 4-[(S)-1-(4-Fluoro-3-trifluoromethyl-phenyl)-2-(2-methyl-azetidin-1-yl)-ethylamino]-quinazoline-8-carboxylic acid amide]",0.391 µM,0.011 µM,0.003 µM,0.12 µM
"NC(=O)c1cccc2c(N[C@H](CN3CCC3)c3ccc(Cl)c(C(F)(F)F)c3)ncnc12 [Example 5, 4-[(S)-2-Azetidin-1-yl-1-(4-chloro-3-trifluoromethylphenyl)-ethylamino]-quinazoline-8-carboxylic acid amide]",0.011 µM,0.0014 µM,0.0009 µM,0.1 µM
